Test results published in patent US11370775B2, “Substituted benzimidazole derivatives as D-amino acid oxidase (DAAO) inhibitors” (NATIONAL TAIWAN UNIVERSITY, priority 2016, dated 2022).

Assays:
[1] = target: T1, DAO in SK-N-SH neuroblastoma cells (Homo sapiens, UniProt P14920); assay: Cell-based DAO assay in SK-N-SH cells; set-up: key to Relative DAO activity normalize to DMSO at Final Conc. 100 uM / Relative DAO activity normalize to DMSO at Final Conc. 10 uM: fraction of DMSO-control DAO activity (1 = DMSO); settings: SK-N-SH 1.25*10^5 cells/well, drug treated for 3.5 hr; for IC50: 50 mM D-serine
T1 construct: endogenous in cells; host or cells: SK-N-SH neuroblastoma cells (ATCC)
Method: The SK-N-SH neuroblastoma cell line was purchased from American Type Culture Collection (ATCC). It was cultured in MEM media (Invitrogen/GIBCO, Rockville, Md.) supplemented with 10% fetal bovine serum, 1×NEAA (Invitrogen/GIBCO) at 37° C. with 5% CO2 in a humidified atmosphere. Cells were trypsinized and plated into a black 96-well plate (NUNC No. 237108) at a density of 125,000 cells/well in 50 μl before cell-based DAO assay.
The cellular DAO activity assay was using a method modified according to the report of Brandish et al. (Brandish, P. E., et al., A cell-based ultra-high-throughput screening assay for identifying inhibitors of D-amino acid oxidase. J Biomol Screen, 2006. 11(5): p. 481-7). SK-N-SH cells were suspended in assay buffers of HANKS buffer solution (Invitrogen/GIBCO No. 14025-092) with 20 mM HEPES. D-serine of (final concentration 50 mM) was added in each well as the substrate for DAO enzyme. The Amplex Red Hydrogen Peroxide/Proxidase Assay Kit (Molecular Probes/Invitrogen, cat. A22188) was used to measure H2O2 production which diffused across the cell membrane into the assay medium after DAO reaction. After seeding cells into black 96-well plate (Nunc No. 237108, Denmark), 50 μl of SK-N-SH cells (125,000 cells/well) was mixed with 50 μl drug solution (2.5 fold of interesting final concentration) and incubate at 37° C. with 5% CO2 in a humidified atmosphere for 30 minutes. After 30 minutes later, 25 μl of a 5 fold mixture containing D-serine, horseradish peroxidase (HRP), and Amplex Red was added into wells containing 100 μl of cell-drugs mixture and incubated at 37° C. with 5% CO2 in a humidified atmosphere for 3 hours. The final concentration of DMSO is below 1%. The fluorescence signal was then detected in SpectraMax M2e microplate reader (Molecular Devices, USA) with excitation at 544 nm and emission at 590 nm. The optimized assay buffer contained a final concentration of 50 mM D-serine, 0.625 units HRP, and 50 μM Amplex Red in a 125 μl assay volume.

[2] = tested on: MK-801-induced hyperlocomotion in C57BL/6 mice; assay: Open field, MK-801-induced hyperlocomotion; assay type: in vivo; settings: for Effect on MK-801 induced hyperlocomotion (open field): MK-801 0.2 mg/kg i.p., mice; for Effect on MK-801-induced hyperlocomotion (FIG. 1): different dosages, compared to the MK-801 group
From the text: The NMDA-receptor antagonist MK-801-induced negative or cognitive deficits in C57BL/6 mice were in a well-established drug-induced schizophrenia mouse model and as a useful pharmacological animal model to identify if the RS-D7, its analog and its prodrug improve the symptoms through the NMDA receptor.
All wild-type (WT) mice used in this study were backcrossed onto a C57BL/6J background from the Laboratory Animal Center of National Taiwan University Hospital, and all behavioral examinations were conducted in WT mice. For acclimatizing to laboratory conditions, the mice were allowed free access to food and water and were housed in groups with a 12 hours light-dark cycle in a temperature and humidity controlled room of the Psychology Department, National Taiwan University. All animals within the age of 3 months were housed individually one week before experiment testing with food and water available ad libitum. In the beginning of the experiments, the mice were handled and weighted daily at least 1 week before the behavioral experiments. The entire animal procedures were performed according to protocols approved by the Animal Care and Use Committee established by the National Taiwan University.
MK-801 was dissolved in saline and administered at a volume of 0.01 ml/g body weight. RS-D7, Drug 12083 (analog of RS-D7) and was freshly dissolved in 1% CMC to the concentration of 2 mg/ml before usage. Prodrug 28095 was freshly dissolved in NMP:HP-beta-CD:H2O (5:25:70) to the concentration of 2 mg/ml before usage. All animals were given vehicle (saline) or MK-801 (0.2 mg/kg, i.p.) 25 minutes before the behavioral experiments. Both vehicle (1% CMC or NMP:HP-beta-CD:H2O) and experimental groups (RS-D7, Drug 12083 or Prodrug 28095) were treated after 5 minutes MK-801 administration with the appropriate dose via P.O. injections (at a volume of 0.01 ml/g body weight).
For investigating the treatment effect of RS-D7 for negative and cognitive symptoms, a series of three behavioral tests (run from the first to the third week), which included open field, sucrose preference test and prepulse inhibition were performed in sequence with a 1-week interval between tests.
To assess spontaneous locomotor activity, each subject was placed into the center of an open-field apparatus (25.40*25.40*40.64 cm^3, Coulbourn Instruments, Whitehall, Pa., USA) under dim lighting condition (60 lx). Motor activity parameters (including total travel distance and travel distance per 10 minutes) were monitored and recorded over a 60 minutes period by using Smart video tracking software (Panlab, Harvard apparatus, US). For comparing the treatment effects of different treatment groups, the percentage change of rescue effect on MK-801-induced hyperlocomotion was calculated using the following formula: %=(rescue effect of drug−MK-801 effect)×100%/MK-801 effect.

T1 sequence (P14920 whole entry): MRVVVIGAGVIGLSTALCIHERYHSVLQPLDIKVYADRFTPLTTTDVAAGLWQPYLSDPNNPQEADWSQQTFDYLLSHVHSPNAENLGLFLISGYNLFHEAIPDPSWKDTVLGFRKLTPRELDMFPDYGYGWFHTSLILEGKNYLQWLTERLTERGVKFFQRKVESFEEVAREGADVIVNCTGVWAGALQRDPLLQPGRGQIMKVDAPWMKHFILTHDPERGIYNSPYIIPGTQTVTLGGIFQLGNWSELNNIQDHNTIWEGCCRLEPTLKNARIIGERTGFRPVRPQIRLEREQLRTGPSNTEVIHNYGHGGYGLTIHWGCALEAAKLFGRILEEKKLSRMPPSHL

SMILES	Relative DAO activity normalize to DMSO at Final Conc. 10 uM [1]	Relative DAO activity normalize to DMSO at Final Conc. 100 uM [1]	IC50 [1]	Effect on MK-801 induced hyperlocomotion (open field) ([2]; 20 mg/kg P.O.)	Effect on MK-801 induced hyperlocomotion (open field) ([2]; 40 mg/kg P.O.)	Effect on MK-801-induced hyperlocomotion (FIG. 1) [2]	Effect on MK-801 induced hyperlocomotion (open field) ([2]; 100 mg/kg P.O.)	Effect on MK-801 induced hyperlocomotion (open field) ([2]; 200 mg/kg P.O.)	Effect on MK-801 induced hyperlocomotion (open field) ([2]; 400 mg/kg P.O.)
COc1c(C)cnc(CSc2nc3cc(C(=O)O)ccc3n2CCC2=CCCCC2)c1C [compound 12083, 1-(2-(cyclohex-1-en-1-yl)ethyl)-2-(((4-methoxy-3,5-dimethylpyridin-2-yl)methyl)thio)-1H-benzo[d]imidazole-5-carboxylic acid]	0.62	0.48	74.2 µM	alleviated MK-801 induced hyperlocomotion deficits	alleviated MK-801 induced hyperlocomotion deficits	can rescue the MK-801-induced hyperlocomotion	–	–	–
COc1c(C)cnc(C[S+]([O-])c2nc3ccc(O)cc3[nH]2)c1C (stereo not shown) [RS-D7, reference compound]	1.05	0.69	141 µM	–	–	can rescue the MK-801-induced hyperlocomotion	did not display the treatment effect	rescued the MK-801 induced hyperlocomotion	rescued the MK-801 induced hyperlocomotion
